#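 Interpolation was linear, between the two tested concentrations surrounding the appropriate level; five concentrations were tested over 48 hours in 96-well plates. GI50 marks 50% less growth. The concentration for full growth arrest is given as TGI.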
# Experiments:
# Test in all cases: NCI tumour cell line growth inhibition, 48 h
# A498 renal = system: A498 renal
# A549 NSCLC = system: A549 NSCLC
# ACHN renal = system: ACHN renal
# BT-549 breast = system: BT-549 breast
# CAKI-1 renal = system: CAKI-1 renal
# CCRF-CEM leukemia = system: CCRF-CEM leukemia
# DU-145 prostate = system: DU-145 prostate
# EKVX NSCLC = system: EKVX NSCLC
# HCT-15 colon = system: HCT-15 colon
# HL-60(TB) leukemia = system: HL-60(TB) leukemia
# HOP-62 NSCLC = system: HOP-62 NSCLC
# HT29 colon = system: HT29 colon
# IGROV1 ovarian = system: IGROV1 ovarian
# K-562 leukemia = system: K-562 leukemia
# MDA-MB-231 breast = system: MDA-MB-231 breast
# MDA-MB-435 = system: MDA-MB-435
# MOLT-4 leukemia = system: MOLT-4 leukemia
# NCI-H226 lung = system: NCI-H226 lung
# NCI-H23 lung = system: NCI-H23 lung
# NCI/ADR-RES ovarian = system: NCI/ADR-RES ovarian
# OVCAR-3 ovarian = system: OVCAR-3 ovarian
# OVCAR-4 ovarian = system: OVCAR-4 ovarian
# OVCAR-5 ovarian = system: OVCAR-5 ovarian
# OVCAR-8 ovarian = system: OVCAR-8 ovarian
# PC-3 prostate = system: PC-3 prostate
# RPMI-8226 leukemia = system: RPMI-8226 leukemia
# SF-539 CNS = system: SF-539 CNS
# SK-MEL-28 melanoma = system: SK-MEL-28 melanoma
# SK-MEL-5 melanoma = system: SK-MEL-5 melanoma
# SK-OV-3 ovarian = system: SK-OV-3 ovarian
# SN12C renal = system: SN12C renal
# SNB-75 CNS = system: SNB-75 CNS
# SR leukemia = system: SR leukemia
# SW-620 colon = system: SW-620 colon
# T-47D breast = system: T-47D breast
# TK-10 renal = system: TK-10 renal
# UACC-257 melanoma = system: UACC-257 melanoma
# UO-31 renal = system: UO-31 renal
# 786-0 renal = system: 786-0 renal
# COLO 205 colon = system: COLO 205 colon
# HCC-2998 colon = system: HCC-2998 colon
# HCT-116 colon = system: HCT-116 colon
# HOP-92 NSCLC = system: HOP-92 NSCLC
# HS 578T breast = system: HS 578T breast
# KM12 colon = system: KM12 colon
# LOX IMVI melanoma = system: LOX IMVI melanoma
# M14 melanoma = system: M14 melanoma
# MALME-3M melanoma = system: MALME-3M melanoma
# MCF7 breast = system: MCF7 breast
# NCI-H460 lung = system: NCI-H460 lung
# NCI-H522 lung = system: NCI-H522 lung
# RXF 393 renal = system: RXF 393 renal
# SF-268 CNS = system: SF-268 CNS
# SF-295 CNS = system: SF-295 CNS
# SK-MEL-2 melanoma = system: SK-MEL-2 melanoma
# SNB-19 CNS = system: SNB-19 CNS
# U251 CNS = system: U251 CNS
# UACC-62 melanoma = system: UACC-62 melanoma
smiles,measurement,setting,value
COc1cc2nc(Cl)nc(Nc3cccc(C4=Nc5c(N)nc(N)nc5NC(c5ccc(Cl)cc5)C4)c3)c2cc1OC (configuration not stated),GI50,A498 renal,10.5 µM
same,TGI,A498 renal,26.9 µM
same,GI50,A549 NSCLC,3140 nM
same,TGI,A549 NSCLC,16.1 µM
same,GI50,ACHN renal,2150 nM
same,TGI,ACHN renal,4.87 µM
same,GI50,BT-549 breast,7.93 µM
same,TGI,BT-549 breast,38 µM
same,GI50,CAKI-1 renal,1990 nM
same,TGI,CAKI-1 renal,4.49 µM
same,GI50,CCRF-CEM leukemia,1590 nM
same,TGI,CCRF-CEM leukemia,5.3 µM
same,GI50,DU-145 prostate,2070 nM
same,TGI,DU-145 prostate,4.84 µM
same,GI50,EKVX NSCLC,2440 nM
same,TGI,EKVX NSCLC,9.17 µM
same,GI50,HCT-15 colon,2070 nM
same,TGI,HCT-15 colon,4.8 µM
same,GI50,HL-60(TB) leukemia,1790 nM
same,TGI,HL-60(TB) leukemia,4.18 µM
same,GI50,HOP-62 NSCLC,5.24 µM
same,TGI,HOP-62 NSCLC,32.5 µM
same,GI50,HT29 colon,2050 nM
same,TGI,HT29 colon,4.53 µM
same,GI50,IGROV1 ovarian,2900 nM
same,TGI,IGROV1 ovarian,10.9 µM
same,GI50,K-562 leukemia,1910 nM
same,TGI,K-562 leukemia,4.16 µM
same,GI50,MDA-MB-231 breast,1630 nM
same,TGI,MDA-MB-231 breast,3.29 µM
same,GI50,MDA-MB-435,1640 nM
same,TGI,MDA-MB-435,3070 nM
same,GI50,MOLT-4 leukemia,1750 nM
same,TGI,MOLT-4 leukemia,5.1 µM
same,GI50,NCI-H226 lung,14.9 µM
same,TGI,NCI-H226 lung,50.1 µM
same,GI50,NCI-H23 lung,2690 nM
same,TGI,NCI-H23 lung,8.4 µM
same,GI50,NCI/ADR-RES ovarian,4160 nM
same,TGI,NCI/ADR-RES ovarian,92 µM
same,GI50,OVCAR-3 ovarian,2040 nM
same,TGI,OVCAR-3 ovarian,4.2 µM
same,GI50,OVCAR-4 ovarian,2000 nM
same,TGI,OVCAR-4 ovarian,4.81 µM
same,GI50,OVCAR-5 ovarian,2120 nM
same,TGI,OVCAR-5 ovarian,5.25 µM
same,GI50,OVCAR-8 ovarian,2350 nM
same,TGI,OVCAR-8 ovarian,5.99 µM
same,GI50,PC-3 prostate,3.97 µM
same,TGI,PC-3 prostate,37.9 µM
same,GI50,RPMI-8226 leukemia,1970 nM
same,TGI,RPMI-8226 leukemia,4.84 µM
same,GI50,SF-539 CNS,1720 nM
same,TGI,SF-539 CNS,3130 nM
same,GI50,SK-MEL-28 melanoma,1660 nM
same,TGI,SK-MEL-28 melanoma,3.1 µM
same,GI50,SK-MEL-5 melanoma,1680 nM
same,TGI,SK-MEL-5 melanoma,3.08 µM
same,GI50,SK-OV-3 ovarian,21.8 µM
same,TGI,SK-OV-3 ovarian,48 µM
same,GI50,SN12C renal,2680 nM
same,TGI,SN12C renal,8.1 µM
same,GI50,SNB-75 CNS,2390 nM
same,TGI,SNB-75 CNS,14.3 µM
same,GI50,SR leukemia,1910 nM
same,TGI,SR leukemia,5.33 µM
same,GI50,SW-620 colon,1850 nM
same,TGI,SW-620 colon,3.79 µM
same,GI50,T-47D breast,2020 nM
same,TGI,T-47D breast,4.61 µM
same,GI50,TK-10 renal,2.62 µM
same,TGI,TK-10 renal,6.87 µM
same,GI50,UACC-257 melanoma,2430 nM
same,TGI,UACC-257 melanoma,6.22 µM
same,GI50,UO-31 renal,2480 nM
same,TGI,UO-31 renal,8.89 µM
COc1cc(OC)cc(C(=O)Nc2cccc(C#Cc3cccc4[nH]nc(N)c34)c2)c1,GI50,786-0 renal,2240 nM
same,TGI,786-0 renal,11.3 µM
same,GI50,A498 renal,4.5 µM
same,TGI,A498 renal,11.1 µM
same,GI50,A549 NSCLC,1430 nM
same,TGI,A549 NSCLC,18.3 µM
same,GI50,ACHN renal,2640 nM
same,TGI,ACHN renal,14.7 µM
same,GI50,BT-549 breast,1.32 µM
same,TGI,BT-549 breast,6.32 µM
same,GI50,CAKI-1 renal,1640 nM
same,TGI,CAKI-1 renal,7.18 µM
same,GI50,CCRF-CEM leukemia,808 nM
same,TGI,CCRF-CEM leukemia,> 56 µM
same,GI50,COLO 205 colon,1160 nM
same,TGI,COLO 205 colon,3.63 µM
same,GI50,DU-145 prostate,2930 nM
same,TGI,DU-145 prostate,> 39 µM
same,GI50,EKVX NSCLC,2920 nM
same,TGI,EKVX NSCLC,> 38.2 µM
same,GI50,HCC-2998 colon,1980 nM
same,TGI,HCC-2998 colon,4.92 µM
same,GI50,HCT-116 colon,548 nM
same,TGI,HCT-116 colon,10.7 µM
same,GI50,HCT-15 colon,492 nM
same,TGI,HCT-15 colon,12.5 µM
same,GI50,HL-60(TB) leukemia,441 nM
same,TGI,HL-60(TB) leukemia,2.51 µM
same,GI50,HOP-62 NSCLC,1.71 µM
same,TGI,HOP-62 NSCLC,22.5 µM
same,GI50,HOP-92 NSCLC,2300 nM
same,TGI,HOP-92 NSCLC,11.7 µM
same,GI50,HS 578T breast,1250 nM
same,TGI,HS 578T breast,5.43 µM
same,GI50,HT29 colon,641 nM
same,TGI,HT29 colon,5.37 µM
same,GI50,IGROV1 ovarian,1130 nM
same,TGI,IGROV1 ovarian,11.1 µM
same,GI50,K-562 leukemia,331 nM
same,TGI,K-562 leukemia,> 100 µM
same,GI50,KM12 colon,957 nM
same,TGI,KM12 colon,10.4 µM
same,GI50,LOX IMVI melanoma,759 nM
same,TGI,LOX IMVI melanoma,7.18 µM
same,GI50,M14 melanoma,535 nM
same,TGI,M14 melanoma,4.55 µM
same,GI50,MALME-3M melanoma,782 nM
same,TGI,MALME-3M melanoma,13.1 µM
same,GI50,MCF7 breast,469 nM
same,TGI,MCF7 breast,12.3 µM
same,GI50,MDA-MB-231 breast,1280 nM
same,TGI,MDA-MB-231 breast,5.14 µM
same,GI50,MDA-MB-435,201 nM
same,TGI,MDA-MB-435,490 nM
same,GI50,MOLT-4 leukemia,931 nM
same,TGI,MOLT-4 leukemia,17.8 µM
same,GI50,NCI-H226 lung,1.93 µM
same,TGI,NCI-H226 lung,9.03 µM
same,GI50,NCI-H23 lung,2140 nM
same,TGI,NCI-H23 lung,11.7 µM
same,GI50,NCI-H460 lung,586 nM
same,TGI,NCI-H460 lung,10.8 µM
same,GI50,NCI-H522 lung,485 nM
same,TGI,NCI-H522 lung,2700 nM
same,GI50,NCI/ADR-RES ovarian,1660 nM
same,TGI,NCI/ADR-RES ovarian,8.54 µM
same,GI50,OVCAR-3 ovarian,943 nM
same,TGI,OVCAR-3 ovarian,11.8 µM
same,GI50,OVCAR-4 ovarian,3510 nM
same,TGI,OVCAR-4 ovarian,23.6 µM
same,GI50,OVCAR-5 ovarian,2970 nM
same,TGI,OVCAR-5 ovarian,45.5 µM
same,GI50,OVCAR-8 ovarian,2360 nM
same,TGI,OVCAR-8 ovarian,13.7 µM
same,GI50,PC-3 prostate,2.05 µM
same,TGI,PC-3 prostate,> 41.2 µM
same,GI50,RPMI-8226 leukemia,1770 nM
same,TGI,RPMI-8226 leukemia,17.8 µM
same,GI50,RXF 393 renal,584 nM
same,TGI,RXF 393 renal,3.03 µM
same,GI50,SF-268 CNS,2060 nM
same,TGI,SF-268 CNS,11 µM
same,GI50,SF-295 CNS,1130 nM
same,TGI,SF-295 CNS,5.17 µM
same,GI50,SF-539 CNS,621 nM
same,TGI,SF-539 CNS,2190 nM
same,GI50,SK-MEL-2 melanoma,428 nM
same,TGI,SK-MEL-2 melanoma,1960 nM
same,GI50,SK-MEL-28 melanoma,1760 nM
same,TGI,SK-MEL-28 melanoma,15.7 µM
same,GI50,SK-MEL-5 melanoma,1010 nM
same,TGI,SK-MEL-5 melanoma,3.29 µM
same,GI50,SK-OV-3 ovarian,3.68 µM
same,TGI,SK-OV-3 ovarian,22.6 µM
same,GI50,SN12C renal,2700 nM
same,TGI,SN12C renal,13.9 µM
same,GI50,SNB-19 CNS,2460 nM
same,TGI,SNB-19 CNS,30.9 µM
same,GI50,SNB-75 CNS,306 nM
same,TGI,SNB-75 CNS,2.71 µM
same,GI50,SR leukemia,133 nM
same,TGI,SR leukemia,5.48 µM
same,GI50,SW-620 colon,689 nM
same,TGI,SW-620 colon,> 35 µM
same,GI50,T-47D breast,1210 nM
same,TGI,T-47D breast,13.8 µM
same,GI50,TK-10 renal,4.29 µM
same,TGI,TK-10 renal,12.4 µM
same,GI50,U251 CNS,821 nM
same,TGI,U251 CNS,15 µM
same,GI50,UACC-257 melanoma,2040 nM
same,TGI,UACC-257 melanoma,11.8 µM
same,GI50,UACC-62 melanoma,478 nM
same,TGI,UACC-62 melanoma,6.49 µM
same,GI50,UO-31 renal,2990 nM
same,TGI,UO-31 renal,12.1 µM
